Assay results as given in patent publication US20170190671A1, “BIS(ARYL)CATECHOL DERIVATIVES AS HERBICIDES” (E I DU PONT DE NEMOURS AND COMPANY, priority 2014, published 2017).

Columns and labels:
Format in all cases: in vivo
[1] = tested on: barnyardgrass (Echinochloa crus-galli); assay: Test B flooded paddy; conditions: Echinochloa crus-galli, 336 h; 250 g ai/ha, Flood, 13 to 15 days, scale 0 (no effect) to 100 (complete control); read-out: Plant response rating, Barnyardgrass
In short: (§1)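 Test compounds are applied straight into paddy water held 3 cm above the soil surface, with that flood maintained for the whole test. After 13 to 15 days in the greenhouse, each species is scored visually relative to controls.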

[2] = tested on: ducksalad (Heteranthera limosa); assay: Test B flooded paddy; conditions: Heteranthera limosa, 336 h; 250 g ai/ha, Flood, 13 to 15 days, scale 0 (no effect) to 100 (complete control); read-out: Plant response rating, Ducksalad
In short: as §1

rice (Oryza sativa) = assay: Test B flooded paddy; conditions: Oryza sativa, 336 h; 250 g ai/ha, Flood, 13 to 15 days, scale 0 (no effect) to 100 (complete control); read-out: Plant response rating, Rice
In short: as §1

[3] = tested on: sedge, umbrella (small-flower umbrella sedge, Cyperus difformis); assay: Test B flooded paddy; conditions: Cyperus difformis, 336 h; 250 g ai/ha, Flood, 13 to 15 days, scale 0 (no effect) to 100 (complete control); read-out: Plant response rating, Sedge, Umbrella
In short: as §1

[4] = tested on: Italian ryegrass (Lolium multiflorum); assay: Test A preemergence; conditions: Lolium multiflorum, pre-emergence, 240 h, 0 to 100 scale (0 no effect, 100 complete control), read-out: Ryegrass, Italian plant response rating
In short: (§2)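 Pre- and postemergence greenhouse screen. Soil: loam + sand. Spray carrier: solvent mixture, non-phytotoxic, with surfactant. Post timing at 1–2 leaves, height 2–10 cm. Readout: visual injury on a 0–100 scale roughly 10 days after application, untreated plants as reference.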

[5] = tested on: barnyardgrass (Echinochloa crus-galli); assay: Test A preemergence; conditions: Echinochloa crus-galli, pre-emergence, 240 h
In short: as §2

[6] = tested on: giant foxtail (Setaria faberii); assay: Test A preemergence; conditions: Setaria faberi, pre-emergence, 240 h, 0 to 100 scale (0 no effect, 100 complete control), read-out: Foxtail, Giant plant response rating
In short: as §2

kochia (Kochia scoparia) [7] = assay: Test A preemergence; conditions: Bassia scoparia, pre-emergence, 240 h, 0 to 100 scale (0 no effect, 100 complete control), read-out: Kochia plant response rating
In short: as §2

[8] = tested on: pigweed (Amaranthus retroflexus); assay: Test A preemergence; conditions: Amaranthus retroflexus, pre-emergence, 240 h, 0 to 100 scale (0 no effect, 100 complete control), read-out: Pigweed plant response rating
In short: as §2

[9] = tested on: ragweed (common ragweed, Ambrosia elatior); assay: Test A preemergence; conditions: Ambrosia artemisiifolia, pre-emergence, 240 h, 0 to 100 scale (0 no effect, 100 complete control), read-out: Ragweed plant response rating
In short: as §2

[10] = tested on: Italian ryegrass (Lolium multiflorum); assay: Test A postemergence; conditions: Lolium multiflorum, post-emergence, 240 h, 0 to 100 scale, read-out: Plant response rating, Ryegrass, Italian
In short: as §2

[11] = tested on: barnyardgrass (Echinochloa crus-galli); assay: Test A postemergence; conditions: Echinochloa crus-galli, post-emergence, 240 h, 0 to 100 scale, read-out: Plant response rating, Barnyardgrass
In short: as §2

[12] = tested on: blackgrass (Alopecurus myosuroides); assay: Test A postemergence; conditions: Alopecurus myosuroides, post-emergence, 240 h, 0 to 100 scale, read-out: Plant response rating, Blackgrass
In short: as §2

corn (Zea mays) = assay: Test A postemergence; conditions: Zea mays, post-emergence, 240 h, 0 to 100 scale
In short: as §2

[13] = tested on: galium (catchweed bedstraw, Galium aparine); assay: Test A postemergence; conditions: Galium, post-emergence, 240 h, 0 to 100 scale, read-out: Plant response rating, Galium
In short: as §2

[14] = tested on: giant foxtail (Setaria faberii); assay: Test A postemergence; conditions: Setaria faberi, post-emergence, 240 h, 0 to 100 scale, read-out: Plant response rating, Foxtail, Giant
In short: as §2

kochia (Kochia scoparia) [15] = assay: Test A postemergence; conditions: Bassia scoparia, post-emergence, 240 h, 0 to 100 scale, read-out: Plant response rating, Kochia
In short: as §2

[16] = tested on: pigweed (Amaranthus retroflexus); assay: Test A postemergence; conditions: Amaranthus retroflexus, post-emergence, 240 h, 0 to 100 scale, read-out: Plant response rating, Pigweed
In short: as §2

[17] = tested on: ragweed (common ragweed, Ambrosia elatior); assay: Test A postemergence; conditions: Ambrosia artemisiifolia, post-emergence, 240 h, 0 to 100 scale, read-out: Plant response rating, Ragweed
In short: as §2

[18] = tested on: wheat (Triticum aestivum); assay: Test A postemergence; conditions: Triticum aestivum, post-emergence, 240 h, 0 to 100 scale, read-out: Plant response rating, Wheat
In short: as §2

[19] = tested on: barnyardgrass (Echinochloa crus-galli); assay: Test C preemergence; conditions: Echinochloa crus-galli, pre-emergence, read-out: Plant response rating, Barnyardgrass
In short: (§3)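 Greenhouse test; preemergence to seeds in loam/sand soil, or postemergence spray to 2-18 cm, 1- to 4-leaf plants in peat/vermiculite medium; compound in non-phytotoxic solvent plus surfactant. Visual rating vs controls at 13-15 d, 0 = no effect, 100 = complete control.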

[20] = tested on: lambsquarters (Chenopodium album); assay: Test C preemergence; conditions: Chenopodium album, pre-emergence, 336 h, scale 0 to 100, read-out: Plant response rating, Lambsquarters
In short: as §3

N#Cc1cccc(Oc2ncc(Cl)cn2)c1Oc1cnc(Cl)cn1 [Compound 32, 2-[(5-chloro-2-pyrazinyl)oxy]-3-[(5-chloro-2-pyrimidinyl)oxy]benzonitrile]
98%: pest or weed control at 62 g/ha ([19]; 62 g ai/ha, preemergence, scale 0 to 100)
85%: pest or weed control at 31 g/ha ([19]; 31 g ai/ha, preemergence, scale 0 to 100)
10%: pest or weed control at 31 g/ha ([4]; 31 g ai/ha) | pest or weed control at 31 g/ha ([10]; 31 g ai/ha) | pest or weed control at 31 g/ha ([17]; 31 g ai/ha)
40%: plant injury at 250 g/ha (rice (Oryza sativa)) | pest or weed control at 31 g/ha ([11]; 31 g ai/ha)
75%: pest or weed control at 250 g/ha [2]
60%: pest or weed control at 125 g/ha ([4]; 125 g ai/ha) | pest or weed control at 31 g/ha ([12]; 31 g ai/ha) | pest or weed control at 16 g/ha ([20]; Preemergence, 16 g ai/ha)
0%: pest or weed control at 31 g/ha ([9]; 31 g ai/ha) | plant injury at 31 g/ha ([18]; 31 g ai/ha)
90%: pest or weed control at 250 g/ha [3] | pest or weed control at 125 g/ha ([5]; 125 g ai/ha, 0 to 100 scale, read-out: Plant response rating, Barnyardgrass) | pest or weed control at 31 g/ha ([13]; 31 g ai/ha) | pest or weed control at 125 g/ha ([13]; 125 g ai/ha) | pest or weed control at 125 g/ha ([14]; 125 g ai/ha) | pest or weed control at 31 g/ha (kochia (Kochia scoparia) [15]; 31 g ai/ha) | pest or weed control at 125 g/ha (kochia (Kochia scoparia) [15]; 125 g ai/ha) | pest or weed control at 31 g/ha ([20]; 31 g ai/ha, preemergence) | pest or weed control at 62 g/ha ([20]; 62 g ai/ha, preemergence)
70%: pest or weed control at 250 g/ha [1] | pest or weed control at 125 g/ha ([12]; 125 g ai/ha)
100%: pest or weed control at 31 g/ha ([6]; 31 g ai/ha) | pest or weed control at 125 g/ha ([6]; 125 g ai/ha) | pest or weed control at 31 g/ha (kochia (Kochia scoparia) [7]; 31 g ai/ha) | pest or weed control at 125 g/ha (kochia (Kochia scoparia) [7]; 125 g ai/ha) | pest or weed control at 31 g/ha ([8]; 31 g ai/ha) | pest or weed control at 125 g/ha ([8]; 125 g ai/ha) | pest or weed control at 125 g/ha ([11]; 125 g ai/ha) | pest or weed control at 31 g/ha ([16]; 31 g ai/ha) | pest or weed control at 125 g/ha ([16]; 125 g ai/ha) | pest or weed control at 125 g/ha ([19]; 125 g ai/ha, preemergence, scale 0 to 100) | pest or weed control at 125 g/ha ([20]; 125 g ai/ha, preemergence)
30%: pest or weed control at 31 g/ha ([5]; 31 g ai/ha, 0 to 100 scale (0 no effect, 100 complete control), read-out: Barnyardgrass plant response rating) | pest or weed control at 125 g/ha ([9]; 125 g ai/ha) | Corn plant response rating (crop injury, 0 = no effect, 100 = complete kill) at 31 g/ha (corn (Zea mays); 31 g ai/ha) | pest or weed control at 125 g/ha ([17]; 125 g ai/ha) | plant injury at 125 g/ha ([18]; 125 g ai/ha)
50%: pest or weed control at 125 g/ha ([10]; 125 g ai/ha) | Corn plant response rating (crop injury, 0 = no effect, 100 = complete kill) at 125 g/ha (corn (Zea mays); 125 g ai/ha) | pest or weed control at 31 g/ha ([14]; 31 g ai/ha) | pest or weed control at 16 g/ha ([19]; Preemergence, 16 g ai/ha, scale 0 to 100 (0 no effect, 100 complete control))
